How the values were obtained:
Format in all cases: physicochemical
[1] = NBPT mixture storage at −20° C. for 4 weeks (crystal formation, flowability); details: solution free of crystal or flowable at −20° C.
Method: Recipe: 20 wt % NBPT/80 wt % Solvent
(§1) Each NBPT mixture is stored at three temperatures, room temperature (20-25° C.), 55° C., and −20° C. for 4 weeks to evaluate storage stability at elevated, ambient, and sub-ambient conditions. After 4 weeks of storage, the samples are visually inspected for (1) color, which is an indication of degradation, and (2) crystal formation, which is an indicator of insufficient solvency to carry 20 wt % NBPT.
(§2) NBPT is considered compatible with a solvent if the mixture remained clear, crystal free, and flowable at −20° C. for four weeks, and has little color (colorless or pale yellow) after four weeks at 55° C.

[2] = Solvent vapor pressure at 20° C.; details: neat solvent
Method: • (1) a vapor pressure of less than or equal to (≤) 0.01 millimeters of mercury (mmHg) at 20° C. as measured by ASTM E1719, • (2) a flash point equal to or greater than (≥) 200° F. (93° C.) as measured by ASTM D3278, • (3) a viscosity less than or equal to (≤) 200 centipoise (cP) at 25° C. as measured by ASTM D445, • (4) a hydroxyl number from 100 to 1,000 as measured by ASTM D4274, and • (5) a VOC content less of than or equal to (≤) 50 weight percent (wt %) as measured by ASTM D6886.
In one embodiment, the fertilizer stabilizer compositions of this invention have a low vapor pressure, typically less than or equal to (≤) 0.01 millimeters of mercury (mmHg), or ≤0.001 mmHg, or ≤0.0001 mmHg, at 20° C. as measured by ASTM E1719.
Only two glycol ethers are identified as compatible with NBPT: methyl CARBITOL™ (as described in WO 2014/028767 A1 and WO 2008/000196 A1, an alkyl glycol ether not of Formula 1, and a comparative sample) and DOWANOL™ EPh6 (a mixture of glycol ethers comprising at least two structures of Formula 1, and an inventive sample). […]

[3] = Compatibility of NBPT with solvent (storage study overall); details: clear, crystal free, flowable at −20° C. for four weeks and little color after four weeks at 55° C.; 20 wt % NBPT
Method: as §1, §2

SMILES: OCCOCCOc1ccccc1 [DOWANOL DiEPh]
- Solvency to carry 20 wt % NBPT [1]: not able to produce a NBPT mixture that provides sufficient solvency to carry 20 wt % NBPT

SMILES: OCCOc1ccccc1 [DOWANOL EPh]
- Solvency to carry 20 wt % NBPT [1]: not able to produce a NBPT mixture that provides sufficient solvency to carry 20 wt % NBPT

SMILES: CC(O)COc1ccccc1 (stereo not drawn) [DOWANOL PPh]
- Solvency to carry 20 wt % NBPT [1]: not able to produce a NBPT mixture that provides sufficient solvency to carry 20 wt % NBPT

SMILES: COCCOCCO [Methyl CARBITOL]
- Vapor pressure mmHg at 20° C. [2]: 0.23 mmHg
- Vapor pressure mmHg at 20° C. ([2]; listed as methyl CARBITOL™): > 0.1 mmHg
- Compatibility with NBPT [3]: compatible

Reference: patent US10800714B2, “Low VOC and low odor aromatic oil” (Dow Global Technologies LLC, priority 2015, dated 2020)
